Results: patent US20090117083A1, “IMMUNOMODULATORY ALKALOIDS” (M N L PHARMA LIMITED, priority 2004, published 2009)
Like-named read-outs stand apart in the source and are kept apart here.

Key:
[1] = system: HSV-1 (SC16)
[2] = molecular target: T1, α-D-glucosidase (Oryza sativa subsp. japonica, UniProt Q653V7); experiment: Glycosidase inhibition: α-D-glucosidase, rice; assay type: biochemical, rice (Oryza sativa); settings: 1 mg/ml; read-out: % inhibition, gluc (rice)
T1 construct: purchased Sigma
Summary of the method: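 Absorbance at 405 nm of released p-nitrophenol gives activity after a glycine pH 10.4 stop timed to the exponential phase. Incubations run at 20° C in citrate/phosphate buffer at optimum pH with 3.57 mM final p-nitrophenyl substrate.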

[3] = system: B16G/F10 melanoma cells; experiment: B16/F10 melanoma lung colonies in mice; assay type: in vivo, C57BL/6 mice; settings: for Colony Count: Day 21, mean ± s.e.m.; for % Reduction: versus vehicle
Experimental: There were 5 treatment groups in the study, with 6 mice arbitrarily allocated to each group. The treatment groups were as follows:
The dose volume was the daily intake for all animals. Test substances were administered to mice in Groups 2, 3, 4 and 5, as solutions in sterile water for 41 h 32 min prior to tumour cell injection (Day 0 is the day of tumour cell injection).
Mice were injected intravenously, via a tail vein, with 0.1 ml of a suspension of B16G/F10 melanoma cells (approximately 1×10^5 cells/mouse) on Day 0.
All dosing solutions were prepared on the first day of dosing (Day −2) and were kept at room temperature.
Mice: Female C57BL/6 mice were supplied and delivered by Charles River UK Limited. The animals were approximately 6-8 weeks of age on arrival. The animals were acclimatized for 29 days prior to the start of the study, and the body weights at the start of dosing were in the range 18-23 g. During the study, the animals were housed in groups of up to 6 in pediatric filter-topped cages with sawdust bedding (autoclaved for sterility). The room and cages were cleaned at regular intervals each week to maintain hygiene. The mice were fed an expanded rodent diet of RM1(E) SQC (batch number 3822; Special Diets Services, Witham, UK) ad libitum and allowed access to sterilized water (N.V. Nutricia, Zoetermeer, The Netherlands). For Groups 2, 3, 4 and 5, the drinking water also contained the appropriate level of test substance for the duration of the dosing period. […] During the acclimatization and study period the temperature range in the rooms was 18-22° C. and the humidity range was 44-79%.
Tumour challenge: B18F10 murine tumour cells (Shrayer D, Bogaars H. Hearing V. J. Maizel A. & Wanebo H. Further characterization of a clinically relevant model of melanoma metastasis and an effective vaccine. Cancer Immunology, Immunotherapy 1995: 40; 277-282) were harvested from sub-confluent cultures growing in vitro, using minimum trypsination. They were washed in sterile phosphate buffered saline (PBS) and the number of viable cells determined. Cells were resuspended in sterile PBS at a concentration of […]. The mice were intravenously injected, via a tail vein, with 0.1 ml of cell suspension (i.e. approximately 1×10^5 cells/mouse) on Day 0. The mice were examined daily for signs of laboured breathing or distress due to extensive metastatic disease. Mice were exposed to the appropriate test substance for 41 h 32 min prior to tumour cell injection (from Day −2 to Day 0). Following tumour cell implant, the test substances were removed, and animals in all groups received drinking water alone for the remainder of the study.
Sampling and analysis: The animals were terminated on Day 21 (21 days after injection of the tumour cells). Blood samples were taken from 3 mice from each group on the day of termination. Animals were anaesthetized with carbon dioxide and blood samples of maximal volume taken by cardiac puncture and collected in plain tubes. Samples were left to clot at room temperature for a minimum of 1 h prior to serum removal, Serum samples were stored at approximately −70° C. prior to analysis. Immediately after performing the bleeds, the spleens were removed from the 3 selected mice. The spleens from these mice were pooled in a petri dish with approximately 3-5 ml of RPMI 1640 tissue culture medium (batch number 3092202; Invitrogen, Paisley, UK) containing 0.52% penicillin/streptomycin (Pen/Strep; batch number 44K2412; Sigma Aldrich, Poole, UK) prior to splenocyte isolation. The spleens from each group were placed in a glass homogeniser with an additional 10-15 ml of medium and homogenised until opaque. The suspension was then placed in a 50 ml centrifuge tube. On occasions when there was significant cell debris, this was allowed to settle before removing the suspension and placing in a fresh tube. The homogenate was then centrifuged at approximately 200×‘g’ for 5 min at approximately 4° C.

[4] = system: Na^+-dependent D-glucose uptake; experiment: Na+-dependent D-glucose uptake into intestinal brush border membrane vesicles; assay type: biochemical, ovine
[5] = molecular target: rabbit gut mucosa α-D-glucosidase; experiment: Inhibition of rabbit gut mucosa α-D-glucosidase; assay type: biochemical
[6] = Group 1: 15 mg/kg i.p. daily, day 0
[7] = Group 1: 15 mg/kg i.p. daily, day 1
[8] = Group 1: 15 mg/kg i.p. daily, day 2
[9] = Group 1: 15 mg/kg i.p. daily, day 3
[10] = Group 1: 15 mg/kg i.p. daily, day 4
[11] = Group 1: 15 mg/kg i.p. daily, day 5
[12] = Group 1: 15 mg/kg i.p. daily, day 6
[13] = Group 1: 15 mg/kg i.p. daily, day 7
[14] = Group 1: 15 mg/kg i.p. daily, day 8
[15] = Group 1: 15 mg/kg i.p. daily, day −2
[16] = Group 2: 150 mg/kg i.p. daily, day 0
[17] = Group 2: 150 mg/kg i.p. daily, day 1
[18] = Group 2: 150 mg/kg i.p. daily, day 2
[19] = Group 2: 150 mg/kg i.p. daily, day 3
[20] = Group 2: 150 mg/kg i.p. daily, day 4
[21] = Group 2: 150 mg/kg i.p. daily, day 5
[22] = Group 2: 150 mg/kg i.p. daily, day 6
[23] = Group 2: 150 mg/kg i.p. daily, day 7
[24] = Group 2: 150 mg/kg i.p. daily, day 8
[25] = Group 2: 150 mg/kg i.p. daily, day −2

T1 sequence (Q653V7 34-885): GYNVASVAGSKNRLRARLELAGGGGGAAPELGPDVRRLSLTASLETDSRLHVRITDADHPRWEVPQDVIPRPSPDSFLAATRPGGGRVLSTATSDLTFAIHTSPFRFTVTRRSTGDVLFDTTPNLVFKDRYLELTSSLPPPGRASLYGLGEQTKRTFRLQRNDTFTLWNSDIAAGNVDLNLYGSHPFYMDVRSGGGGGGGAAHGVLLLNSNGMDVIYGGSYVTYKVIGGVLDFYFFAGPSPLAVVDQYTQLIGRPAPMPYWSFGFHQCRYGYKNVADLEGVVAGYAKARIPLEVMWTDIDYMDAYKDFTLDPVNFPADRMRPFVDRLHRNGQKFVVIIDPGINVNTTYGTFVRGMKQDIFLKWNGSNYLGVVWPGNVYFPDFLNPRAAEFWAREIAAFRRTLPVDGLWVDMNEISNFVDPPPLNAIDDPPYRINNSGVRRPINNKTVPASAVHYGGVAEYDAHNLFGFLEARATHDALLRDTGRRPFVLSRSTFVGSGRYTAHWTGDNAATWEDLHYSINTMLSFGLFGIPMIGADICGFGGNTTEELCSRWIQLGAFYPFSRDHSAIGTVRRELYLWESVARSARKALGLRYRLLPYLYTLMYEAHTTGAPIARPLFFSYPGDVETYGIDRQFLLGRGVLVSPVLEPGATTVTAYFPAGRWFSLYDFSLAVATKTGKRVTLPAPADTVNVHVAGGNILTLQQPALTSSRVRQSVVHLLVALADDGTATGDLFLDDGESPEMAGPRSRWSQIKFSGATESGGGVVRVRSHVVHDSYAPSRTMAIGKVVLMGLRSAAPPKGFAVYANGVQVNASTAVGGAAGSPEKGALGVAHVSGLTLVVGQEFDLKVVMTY

OC[C@@H]1[C@@H](O)[C@H](O)[C@H]2[C@H](O)[C@@H](O)CN21 [casuarine (8)]
Group mean weight [1, 6]: 16.7 g | Weight (% change) [1, 6]: 3.1% | Group mean weight [1, 7]: 17.1 g | Weight (% change) [1, 7]: 5.6% | Group mean weight [1, 8]: 17.1 g | Weight (% change) [1, 8]: 5.6% | Group mean weight [1, 9]: 17.6 g | Weight (% change) [1, 9]: 8.6% | Group mean weight [1, 10]: 17.4 g | Weight (% change) [1, 10]: 7.4% | Group mean weight [1, 11]: 17.6 g | Weight (% change) [1, 11]: 8.6% | Group mean weight [1, 12]: 17.7 g | Weight (% change) [1, 12]: 9.2% | Group mean weight [1, 13]: 17.4 g | Weight (% change) [1, 13]: 7.4% | Group mean weight [1, 14]: 17.7 g | Weight (% change) [1, 14]: 9.3% | Group mean weight [1, 15]: 16.2 g | Weight (% change) [1, 15]: 0% | Group mean weight [1, 16]: 16 g | Weight (% change) [1, 16]: 3.2% | Group mean weight [1, 17]: 16.4 g | Weight (% change) [1, 17]: 5.8% | Group mean weight [1, 18]: 16.3 g | Weight (% change) [1, 18]: 5.2% | Group mean weight [1, 19]: 16.6 g | Weight (% change) [1, 19]: 7.1% | Group mean weight [1, 20]: 16.4 g | Weight (% change) [1, 20]: 5.8% | Group mean weight [1, 21]: 16.8 g | Weight (% change) [1, 21]: 8.4% | Group mean weight [1, 22]: 17 g | Weight (% change) [1, 22]: 9.7% | Group mean weight [1, 23]: 16.7 g | Weight (% change) [1, 23]: 7.7% | Group mean weight [1, 24]: 16.8 g | Weight (% change) [1, 24]: 8.4% | Group mean weight [1, 25]: 15.5 g | Weight (% change) [1, 25]: 0% | ear thickness response ([1]; versus infected untreated group): produced a reduction in ear thickness | inhibition at 1000 µg/mL [2]: 76% | Colony Count ([3]; 0.03 μg/ml in drinking water before tumour cell injection): 17.00 ± 6.97 | % Reduction ([3]; 0.03 μg/ml in drinking water): 76% | Colony Count ([3]; 3 μg/ml in drinking water before tumour cell injection): 35.40 ± 7.47 | % Reduction ([3]; 3 μg/ml in drinking water): 49% | Colony Count ([3]; 0.3 mg/ml in drinking water before tumour cell injection): 38.50 ± 11.49 | % Reduction ([3]; 0.3 mg/ml in drinking water): 45% | Glucose uptake ([4]; initial rate, competition with labelled D-glucose, control 240): 265 pmol/s/mg | glucose transport, effect ([4]; versus control): slightly stimulated | IC50 [5]: 210 µM
